# Laboratory results: patent US10293023B2, “Method of altering vascular permeability and uses thereof” (CHILDREN'S MEDICAL CENTER CORPORATION, priority 2013, dated 2019)
# Key:
# LOX [1] = assay: LOX activity measured in blood samples (LOX activity assay kit); type: in vivo; details: treated mice vs control; BAPN 2 weeks, LOX siRNA 1 week
# Experimental: LOX activity in the serum and lung homogenate was measured using LOX activity assay kit (ABD Bioquest, CA) in which LOX substrate that releases hydrogen peroxide was detected ^13,37,55. Hydroxyproline in lung tissue or serum was measured using Hydroxyproline assay kit (Biovision, Milpitas, Calif.)^27. The levels of IL-1 and TNF-α in the lung homogenate were measured by ELISA (R&D systems).
# mouse lungs [2] = assay: In vivo pulmonary permeability assay (Evan's Blue dye leakage); design: species or system mice
# Experimental: (§1) Mice (6-10 weeks old, CD1 strain, female) were treated with LPS (100 mg, intraperitoneally) and lung permeability was assessed 2 days after injection ^3. […] The lung permeability was measured using Evan's Blue dye or low MW fluorescently labeled dextran (MW 4000, sigma) leakage ^3. Evans blue dye was extracted from the lung by incubation with formamide (70° C. for 24 h) and the concentration of Evans blue was estimated by dual-wavelength spectrophotometer (620 nm and 740 nm). Mice were treated with BAPN (3 mg/kg, drinking water) for 14 days ^13. […] The inventors treated the mice with LPS for the last two days. For decellularization of lung, the inventors perfused the lung with decellularization buffer (0.5% SDS/PBS) for 1 h and cryosectioned it and analyzed by H&E staining and immunohistochemistry 25,26. […] For analysis of collagen structure, the inventors used picrosirius red staining ^30 and observed the structure using birefringence microscope (Abrio imaging system, CRI, MA)^30.
# mouse lungs [3] = assay: Inflammatory cell count in BAL fluid (Wright-Giemsa stain); type: in vivo, mice; details: total inflammatory cell count
# Experimental: BAL was performed by instilling 0.9% NaCl in two separate 0.5 ml aliquots. The fluid was recovered by gentle suction and placed on ice for immediate processing. An aliquot of the BAL fluid was processed immediately for differential cell counts performed on cytospin preparations stained with modified Wright-Giemsa stain (Diff-Quik; American Scientific Products, McGaw Park, Ill.).
# [4] = tested on: pulmonary endothelial cells; assay: Endothelial cell-cell junctional integrity in lung by TEM; type: in vivo, mice
# Experimental: For transmission electron microscopy (TEM), small pieces (1-2 mm cubes) of lung tissue were fixed with 2.5% Glutaraldehyde and 2% Paraformaldehyde in 0.1 M sodium cacodylate buffer (pH 7.4) for at least 2 h at RT, washed in 0.1M cacodylate buffer and postfixed with 1% Osmiumtetroxide (OsO4)/1.5% Potassiumferrocyanide (KFeCN6) for 1 h, washed in water and incubated in 1% aqueous uranyl acetate for 1 h followed by washes in water and subsequent dehydration in grades of alcohol. The samples were then put in propyleneoxide for 1 hr and infiltrated ON in a 1:1 mixture of propyleneoxide and TAAB Epon (Marivac Canada Inc. St. Laurent, Canada). The samples were then embedded in TAAB Epon and polymerized at 60 C for 48 hrs. Ultrathin sections (about 60 nm) were cut on a Reichert Ultracut-S microtome, picked up on to copper grids stained with lead citrate and examined in a JEOL 1400 TEM microscope or a TecnaiG^2 Spirit BioTWIN.
# lung cell = assay: Lung cell proliferation or apoptosis in vivo; design: species or system mice; details: data not shown
# mouse lung tissues = assay: Lung stiffness (Young's modulus) by tensile loading assay; details: compared with controls (control IgG, control siRNA)
# Experimental: Mice (6-10 weeks old, CD1 strain, female) were treated with LPS (100 mg, intraperitoneally) and lung permeability was assessed 2 days after injection ^3. […] Gene knockdown or overexpression in the lung (2 days later) was confirmed by measuring mRNA and/or protein levels using qRT-PCR and IB, respectively. […] Mice were treated with BAPN (3 mg/kg, drinking water) for 14 days ^13. The inventors also treated mice with LOX function-blocking polyclonal antibody (3 mg/kg)^13,36, LOX DNA or LOX siRNA (10 mg/mouse) injected intravenously (retro orbital injection) twice per week. The inventors treated the mice with LPS for the last two days.
# The inventors trimmed and made cylindrical lung tissue sections using a sharp knife that included peripheral and central portions of the left lobe. The stiffness of mouse lung tissues was evaluated by determining Young's Modulus (E) under tensile loading ^31,32 (Mach-1; Biomomentum, Canada). Tissues were attached to the base and probe using polyacrylamide glue and stretched until complete breakage of the tissue. The Young's Modulus was derived from the slope of a standard stress-strain curve using data within the first 10% of the maximum strain.
# mouse lungs [5] = assay: Endotoxin (LPS)-induced lung vascular permeability, Evan's Blue dye leakage; details: for increase of vascular permeability induced by LPS: treatment in combination with LPS for the last two days
# Experimental: as §1
# mouse lungs [6] = assay: ECM and collagen structure of decellularized lung (H&E, immunofluorescence, picrosirius red birefringence); details: for collagen fiber alignment with alveolar septae: picrosirius red staining, birefringence microscopy
# Experimental: as §1
# LOX [7] = assay: LOX mRNA and protein expression in vivo (qRT-PCR, immunoblot); design: species or system mice
# Experimental: Quantitative reverse transcription (qRT)-PCR was performed with the Quantitect SYBR Green RT-PCR kit (QIAGEN) using ABI 7300 real time PCR system (Applied Biosystems, Foster City, Calif.). Cyclophilin controlled for overall cDNA content. The primers used for mouse cyclophilin were forward; 5′-[…]-3′ (SEQ ID NO:4), reverse; 5′-[…]-3′(SEQ ID NO:5)^15. The primers for mouse LOX were forward; 5′-[…]-3′(SEQ ID NO:6), reverse; 5′-[…]-3′(SEQ ID NO:7).
Molecule,decrease in LOX activity measured in blood samples (LOX [1]) [%],lung vascular permeability: Evan's Blue dye leakage higher than in control non-treated lungs (mouse lungs [2]; BAPN treatment of healthy mice),increase of inflammatory cells in the bronchoalveolar lavage (BAL) fluid (mouse lungs [3]),junctions between pulmonary endothelial cells [4],lung cell proliferation or apoptosis in vivo (lung cell),decrease of lung stiffness (Young's modulus) (mouse lung tissues) [%],"LPS-induced pulmonary edema in mice (mouse lungs [5]; mouse, in vivo)",increase of vascular permeability induced by LPS (mouse lungs [5]),"disruption of collagen VI-positive ECM fibers by LPS (mouse lungs [6]; decellularized lungs, LPS in combination with BAPN)",fine collagen fibril / ECM structure in decellularized lung (mouse lungs [6]; immunofluorescence microscopy),collagen fiber alignment with alveolar septae (mouse lungs [6]),"suppression of vascular permeability induced by LPS treatment (mouse lungs [5]; Evans blue dye leakage, 8 mg/mouse/day, IP, two days) [%]","increase of lung vascular permeability (mouse lungs [2]; Evan's Blue dye leakage, compared to control-treated or untreated mice) [fold]",LOX expression in the lung (LOX [7]; mRNA and/or protein),"LOX expression in other organs, such as the kidney (LOX [7]; not shown)"
"N#CCCN [BAPN, beta-aminopropionitrile]",25,more than 60%,approximately 2 fold,disrupted,did not produce detectable changes,40,inhibits,prevented,prevented this disruption,lost the fine network,more randomly distributed,–,–,–,–
CC(C)(S)[C@@H](N)C(=O)O [D-penicillamine],–,–,–,–,–,–,–,–,–,–,–,40,–,–,–
"LOX siRNA: siRNA for mouse LOX, 5′-CAACGGGCAGGUGUUCAG-3′ (SEQ ID NO:2) and 5′-CUGAACACCUGCCCGUUG-3′ (SEQ ID NO:3) (listed as RNA, chemistry not given here)",60,–,–,–,–,30,–,restored,–,–,disrupted normal collagen fiber alignment,–,2.5,specifically decreased,not in the kidney
